Experimental data from publication PMC9490060, “Synthesis and evaluation of anticancer activity of quillaic acid derivatives: A cell cycle arrest and apoptosis inducer through NF-κB and MAPK pathways” (Frontiers in Chemistry, 2022).

Tests used:
Assay type in all cases: cell-based, human
HCT116 cells [1] = assay: Cell cycle analysis by flow cytometry; details: HCT116, 30 μM, 24 h; control 53.9
Description: Inoculate HCT116 cells in a 6-well plate (5.0 × 10^5 cells per well) and incubate at 37°C for 24 h. The exponentially growing cells were then incubated with compound E at 10 and 30 μM. After 24 h, untreated cells (control) or cells treated with compound E were centrifuged at 1,000 rpm for 15 min, and then fixed in 70% ethanol at […] for at least 24 h. The cells were then resuspended in phosphate buffered saline (PBS) containing 0.1 mg/ml RNase A and 5 mg/ml PI. The DNA content of cells used for cell cycle distribution analysis was measured by flow cytometry, and analyzed using FACSalibur flow cytometer and Cell Quest software (Becton-Dickinson, Franklin Lakes, NJ, United States).

IκB = assay: Western blot, NF-κB signaling pathway: IκB; details: HCT116, 2.5, 5 and 10 μM, 24 h
From the text: The NF-κB pathway plays an important role in a variety of cellular functions, including cell growth, apoptosis, and tumorigenesis ([Hwang et al., 2012]). Interfering with NF-κB signaling can inhibit tumor cell proliferation and metastasis ([Yenmis et al., 2021]). Therefore, NF-κB inhibitors are considered as potential anticancer drugs ([Wang et al., 2017]).
(§1) FIGURE 8 Effect of compound E on NF-κB signaling pathway in HCT116 cells. Cells were pretreated with the various concentrations of compound E (2.5, 5 and 10 μM) for 24 h. The expression of phospho-NF-κB p65, NF-κB p65, phospho-IκB, IκB were analyzed by Western blot. ***p < 0.001, **p < 0.01, *p < 0.05 vs. control group. The error bars represent the mean ± SD for three independent experiments.
(§2) HCT116 cells were cultured with different concentrations of compound E for 24 h. Then, the floating cells were collected and washed twice with ice-cold PBS. Add cold RIPA buffer. After the cells were lysed on ice for 20 min, the lysate was centrifuged at 12,000 rpm for 15 min at 4°C. The BCA method determines the protein concentration. Separated by SDS/PAGE electrophoresis and transferred to a nitrocellulose filter membrane for Western blot analysis. The membrane was blocked with PBS containing 5% skim milk at room temperature for 2 h. […] The protein is detected by electrochemiluminescence (Bio-Rad, CA, United State).

Bax = assay: Western blot, Bax expression; details: HCT116, 10 μM, 24 h
Description: The Bcl-2 protein family (including the anti-apoptotic protein Bcl-2 and the pro-apoptotic protein Bax) is a group of key apoptotic proteins that play an important role in the regulation of apoptosis ([Han et al., 2013]; [Zhang and Saghatelian, 2013]; [Zheng et al., 2021]). HCT116 cells were treated with different concentrations (2.5, 5, and 10 μM) of E to detect the expression of Bax and Bcl-2 proteins.
as §1, with “7” for “8”, “the levels of Bax, and Bcl-2” for “NF-κB signaling pathway”, “Bax, and Bcl-2” for “phospho-NF-κB p65, NF-κB p65, phospho-IκB, IκB”
as §2

HCT116 cells [2] = assay: Colony formation assay; details: HCT116, 2.5, 5, 10 μM, 7 days
Description: The colony-forming cell assay was used to determine the ability of cells to proliferate and differentiate into colonies and thereby to investigate the anti-proliferative efficacy of compound E ([Lei et al., 2015]).
FIGURE 3 Colony formation of HCT116 cells inhibited by compound E. (A) HCT116 cells were incubated with varying concentrations of E (0, 2.5, 5, 10 μM) and stained with crystal violet. (B) The micrographic differences between the colonies. Images were taken of stained single colonies observed under a microscope.
Exponentially growing HCT116 cells (600 cells per well) were plated on 6-well plates with Roswell Park Memorial Institute (RPMI) 1,640 medium containing 10% fetal bovine serum (FBS). After incubating for 12 h, replace with fresh medium. Then, the cells were treated with different concentrations of compound E (2.5, 5 and 10 μM) dissolved in DMSO. Some cells only use DMSO as a negative control. Then incubate for another 7 days. Finally, the cells were fixed with 95% ethanol for 25 min, stained with 0.1% crystal violet for 15 min at room temperature, and then washed with PBS until the […] were completely removed.

## CC1(C)CC[C@]2(C(=O)OCCn3nnnc3-c3ccccc3)[C@H](O)C[C@]3(C)C(=CC[C@@H]4[C@@]5(C)CC[C@H](O)[C@@](C)(C=O)[C@@H]5CC[C@]43C)[C@@H]2C1 [Compound E, 2-(5-phenyl-1H-tetrazol-1-yl)ethyl (4aR,5R,6aS,6bR,8aR,9S,10S,12aR,12bR,14bS)-9-formyl-5,10-dihydroxy-2,2,6a,6b,9,12a-hexamethyl-1,3,4,5,6,6a,6b,7,8,8a,9,10,11,12,12a,12b,13,14b-octadecahydropicene-4a (2H)-carboxylate]
HCT116 cells [1]
  %G1: 81.2%
IκB
  phosphorylation and degradation of IκB: inhibited the phosphorylation and degradation of IκB
Bax
  expression of Bax: significantly increased
HCT116 cells [2]
  colony formation (number and size of colonies): significantly decreased the number and size of colonies in a concentration-dependent manner
